From patent publication US11208412B2 (DAEGU-GYEONGBUK MEDICAL INNOVATION FOUNDATION, priority 2017, dated 2021)

Columns and labels:
Assay in all cases: Kinase selectivity, DiscoverX scanMAX Kinase assay panel (% control)
Type in all cases: binding
[1] = molecular target: T1, kinases of the scanMAX Kinase assay panel (Homo sapiens, UniProt Q8NG66); conditions: NEK11; 1 uM
T1 construct: purchased DiscoverX Co. (contract measurement) scanMAX Kinase assay panel
T1 sequence (Q8NG66 1-645): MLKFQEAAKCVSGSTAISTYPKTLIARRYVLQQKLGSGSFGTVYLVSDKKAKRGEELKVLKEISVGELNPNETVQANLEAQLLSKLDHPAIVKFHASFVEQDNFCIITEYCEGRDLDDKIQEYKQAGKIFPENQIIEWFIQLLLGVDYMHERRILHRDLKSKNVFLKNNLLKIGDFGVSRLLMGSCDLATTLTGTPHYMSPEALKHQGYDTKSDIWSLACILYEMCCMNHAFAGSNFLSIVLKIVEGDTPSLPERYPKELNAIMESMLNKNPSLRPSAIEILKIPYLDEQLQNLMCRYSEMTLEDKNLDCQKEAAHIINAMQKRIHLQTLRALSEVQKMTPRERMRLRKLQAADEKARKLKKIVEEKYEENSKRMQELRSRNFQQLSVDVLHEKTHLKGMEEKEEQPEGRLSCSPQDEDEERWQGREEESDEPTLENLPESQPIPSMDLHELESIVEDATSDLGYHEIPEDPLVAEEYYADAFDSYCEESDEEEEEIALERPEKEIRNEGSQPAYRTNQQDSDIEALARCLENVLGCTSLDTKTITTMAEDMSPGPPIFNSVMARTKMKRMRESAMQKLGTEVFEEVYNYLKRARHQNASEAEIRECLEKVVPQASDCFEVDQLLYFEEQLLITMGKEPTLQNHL
How it was run: (§1)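 A 1 uM DMSO solution of compound was applied across the panel kinases, and results were expressed as % control relative to DMSO (100%) and a positive control (0%).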

[2] = molecular target: T2, kinases of the scanMAX Kinase assay panel (Homo sapiens, UniProt P07949, M918T); conditions: kinase RET(M918T); 1 uM in DMSO
T2 construct: purchased DiscoverX Co. (contract measurement) scanMAX Kinase assay panel
How it was run: as §1

[3] = molecular target: T3, kinases of the scanMAX Kinase assay panel (Homo sapiens, UniProt P53667); conditions: LIMK1; 1 uM
T3 construct: purchased DiscoverX Co. (contract measurement) scanMAX Kinase assay panel
How it was run: as §1

[4] = molecular target: T4, kinases of the scanMAX Kinase assay panel (Homo sapiens, UniProt O75747); conditions: PIK3C2G; 1 uM
T4 construct: purchased DiscoverX Co. (contract measurement) scanMAX Kinase assay panel
T4 sequence (O75747 1-1486): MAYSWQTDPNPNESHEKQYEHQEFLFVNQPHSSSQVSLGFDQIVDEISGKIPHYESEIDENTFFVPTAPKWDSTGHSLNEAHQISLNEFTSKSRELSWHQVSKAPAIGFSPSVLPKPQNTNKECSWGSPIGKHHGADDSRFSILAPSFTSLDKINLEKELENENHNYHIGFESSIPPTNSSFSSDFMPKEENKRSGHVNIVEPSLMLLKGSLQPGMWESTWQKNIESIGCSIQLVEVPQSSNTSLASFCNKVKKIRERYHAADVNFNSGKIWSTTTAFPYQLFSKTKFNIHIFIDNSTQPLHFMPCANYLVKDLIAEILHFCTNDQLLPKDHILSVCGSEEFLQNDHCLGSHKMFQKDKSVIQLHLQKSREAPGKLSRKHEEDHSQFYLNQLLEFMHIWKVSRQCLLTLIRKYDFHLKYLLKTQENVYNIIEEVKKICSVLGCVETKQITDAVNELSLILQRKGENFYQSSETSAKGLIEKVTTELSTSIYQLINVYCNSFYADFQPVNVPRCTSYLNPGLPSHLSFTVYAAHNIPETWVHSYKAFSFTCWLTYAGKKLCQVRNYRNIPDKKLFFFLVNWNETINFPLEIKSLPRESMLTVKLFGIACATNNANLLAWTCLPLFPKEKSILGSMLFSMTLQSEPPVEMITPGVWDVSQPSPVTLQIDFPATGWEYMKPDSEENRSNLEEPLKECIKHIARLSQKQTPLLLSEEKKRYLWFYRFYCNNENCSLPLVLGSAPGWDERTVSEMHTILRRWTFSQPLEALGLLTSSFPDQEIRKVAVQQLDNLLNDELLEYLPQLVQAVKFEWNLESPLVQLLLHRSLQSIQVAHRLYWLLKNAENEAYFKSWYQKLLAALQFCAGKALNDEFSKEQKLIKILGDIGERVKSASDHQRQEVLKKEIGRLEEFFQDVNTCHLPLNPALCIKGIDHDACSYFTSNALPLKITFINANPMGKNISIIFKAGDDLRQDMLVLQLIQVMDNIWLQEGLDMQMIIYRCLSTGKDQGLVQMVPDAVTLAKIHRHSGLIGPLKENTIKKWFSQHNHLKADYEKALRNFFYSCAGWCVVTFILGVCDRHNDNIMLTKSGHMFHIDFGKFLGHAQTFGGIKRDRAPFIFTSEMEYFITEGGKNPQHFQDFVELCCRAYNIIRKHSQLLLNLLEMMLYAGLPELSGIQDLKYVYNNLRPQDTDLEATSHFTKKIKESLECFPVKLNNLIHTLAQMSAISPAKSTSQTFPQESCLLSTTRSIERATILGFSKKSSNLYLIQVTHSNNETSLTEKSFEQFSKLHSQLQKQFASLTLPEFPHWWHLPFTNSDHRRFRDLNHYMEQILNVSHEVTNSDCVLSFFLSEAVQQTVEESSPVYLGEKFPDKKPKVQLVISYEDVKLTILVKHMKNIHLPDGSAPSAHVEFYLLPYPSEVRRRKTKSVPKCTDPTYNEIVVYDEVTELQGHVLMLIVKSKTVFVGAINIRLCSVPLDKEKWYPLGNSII
How it was run: as §1

[5] = molecular target: T5, kinases of the scanMAX Kinase assay panel (Homo sapiens, UniProt Q9Y463); conditions: DYRK1B; 1 uM
T5 construct: purchased DiscoverX Co. (contract measurement) scanMAX Kinase assay panel
How it was run: as §1

[6] = molecular target: T6, kinases of the scanMAX Kinase assay panel (Homo sapiens, UniProt P54756); conditions: EPHA5; 1 uM
T6 construct: purchased DiscoverX Co. (contract measurement) scanMAX Kinase assay panel
How it was run: as §1

T5 sequence (Q9Y463 whole entry): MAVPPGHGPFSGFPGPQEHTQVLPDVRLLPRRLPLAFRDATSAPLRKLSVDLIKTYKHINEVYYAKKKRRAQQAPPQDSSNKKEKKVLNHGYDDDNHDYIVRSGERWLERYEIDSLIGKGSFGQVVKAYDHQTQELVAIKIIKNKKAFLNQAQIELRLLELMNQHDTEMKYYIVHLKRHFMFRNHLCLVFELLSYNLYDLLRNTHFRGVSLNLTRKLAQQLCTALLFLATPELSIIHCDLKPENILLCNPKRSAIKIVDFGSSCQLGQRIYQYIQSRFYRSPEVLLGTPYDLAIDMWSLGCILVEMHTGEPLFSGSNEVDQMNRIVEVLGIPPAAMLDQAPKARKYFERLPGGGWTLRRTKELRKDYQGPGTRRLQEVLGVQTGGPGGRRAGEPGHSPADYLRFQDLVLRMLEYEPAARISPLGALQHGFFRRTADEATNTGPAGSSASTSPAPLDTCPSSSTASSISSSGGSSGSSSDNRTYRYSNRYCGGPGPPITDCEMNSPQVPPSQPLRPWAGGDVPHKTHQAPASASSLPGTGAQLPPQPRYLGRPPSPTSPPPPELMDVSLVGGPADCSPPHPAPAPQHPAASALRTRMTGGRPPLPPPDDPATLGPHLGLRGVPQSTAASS
T6 sequence (P54756 25-1037): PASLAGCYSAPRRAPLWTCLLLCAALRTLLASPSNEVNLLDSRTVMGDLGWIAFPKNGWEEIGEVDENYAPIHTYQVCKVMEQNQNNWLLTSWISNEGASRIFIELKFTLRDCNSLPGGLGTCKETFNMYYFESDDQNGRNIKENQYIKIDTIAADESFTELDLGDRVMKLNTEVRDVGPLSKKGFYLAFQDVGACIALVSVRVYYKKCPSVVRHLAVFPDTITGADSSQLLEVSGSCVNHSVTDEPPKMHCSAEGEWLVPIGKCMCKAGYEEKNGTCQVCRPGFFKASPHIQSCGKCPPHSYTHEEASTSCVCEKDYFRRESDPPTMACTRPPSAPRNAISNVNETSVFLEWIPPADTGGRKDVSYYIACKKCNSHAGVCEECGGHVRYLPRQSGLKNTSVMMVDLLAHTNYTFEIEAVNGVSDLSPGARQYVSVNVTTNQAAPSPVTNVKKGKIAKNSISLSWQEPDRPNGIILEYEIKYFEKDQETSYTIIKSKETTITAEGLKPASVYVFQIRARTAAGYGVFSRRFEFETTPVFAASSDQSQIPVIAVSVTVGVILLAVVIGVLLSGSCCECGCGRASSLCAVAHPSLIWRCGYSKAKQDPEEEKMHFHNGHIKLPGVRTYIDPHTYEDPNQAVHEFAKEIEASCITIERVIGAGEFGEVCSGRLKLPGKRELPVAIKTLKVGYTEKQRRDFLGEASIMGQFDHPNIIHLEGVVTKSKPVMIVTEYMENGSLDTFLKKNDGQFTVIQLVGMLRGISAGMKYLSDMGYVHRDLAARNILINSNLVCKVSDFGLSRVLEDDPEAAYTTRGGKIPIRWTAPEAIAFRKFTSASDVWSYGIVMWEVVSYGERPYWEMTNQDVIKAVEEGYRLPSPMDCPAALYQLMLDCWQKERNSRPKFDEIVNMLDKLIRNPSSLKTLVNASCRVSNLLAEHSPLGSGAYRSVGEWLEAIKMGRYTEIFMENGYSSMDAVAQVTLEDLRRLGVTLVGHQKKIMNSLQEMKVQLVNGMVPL
T2 sequence (P07949 29-1114 M918T): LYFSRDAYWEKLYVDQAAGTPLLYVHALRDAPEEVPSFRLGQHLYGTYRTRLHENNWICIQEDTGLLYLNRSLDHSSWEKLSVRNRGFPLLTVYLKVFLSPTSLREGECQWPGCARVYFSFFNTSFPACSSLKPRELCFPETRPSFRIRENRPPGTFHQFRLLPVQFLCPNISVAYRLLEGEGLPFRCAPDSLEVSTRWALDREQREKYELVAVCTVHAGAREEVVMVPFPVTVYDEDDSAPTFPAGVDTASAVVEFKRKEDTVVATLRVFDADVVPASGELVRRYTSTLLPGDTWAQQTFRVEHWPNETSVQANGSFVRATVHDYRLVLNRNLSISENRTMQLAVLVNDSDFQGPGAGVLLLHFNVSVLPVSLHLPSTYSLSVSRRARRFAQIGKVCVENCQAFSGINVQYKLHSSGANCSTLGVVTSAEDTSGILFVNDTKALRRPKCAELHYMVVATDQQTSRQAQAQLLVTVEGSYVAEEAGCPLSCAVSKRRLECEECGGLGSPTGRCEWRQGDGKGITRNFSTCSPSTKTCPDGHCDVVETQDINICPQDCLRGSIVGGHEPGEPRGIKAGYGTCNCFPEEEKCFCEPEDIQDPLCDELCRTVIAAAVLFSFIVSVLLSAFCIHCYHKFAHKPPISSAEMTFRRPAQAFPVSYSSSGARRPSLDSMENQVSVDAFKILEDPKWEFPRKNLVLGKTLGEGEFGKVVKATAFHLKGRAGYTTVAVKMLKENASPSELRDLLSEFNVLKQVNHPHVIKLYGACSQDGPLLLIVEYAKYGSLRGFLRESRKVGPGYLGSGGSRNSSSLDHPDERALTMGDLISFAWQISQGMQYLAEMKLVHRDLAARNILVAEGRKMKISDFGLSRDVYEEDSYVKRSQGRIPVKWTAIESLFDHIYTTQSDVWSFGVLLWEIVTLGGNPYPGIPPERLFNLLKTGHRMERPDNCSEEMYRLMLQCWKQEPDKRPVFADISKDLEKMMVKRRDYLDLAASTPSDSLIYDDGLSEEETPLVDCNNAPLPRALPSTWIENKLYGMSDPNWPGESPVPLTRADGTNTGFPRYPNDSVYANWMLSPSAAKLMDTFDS
T3 sequence (P53667 whole entry): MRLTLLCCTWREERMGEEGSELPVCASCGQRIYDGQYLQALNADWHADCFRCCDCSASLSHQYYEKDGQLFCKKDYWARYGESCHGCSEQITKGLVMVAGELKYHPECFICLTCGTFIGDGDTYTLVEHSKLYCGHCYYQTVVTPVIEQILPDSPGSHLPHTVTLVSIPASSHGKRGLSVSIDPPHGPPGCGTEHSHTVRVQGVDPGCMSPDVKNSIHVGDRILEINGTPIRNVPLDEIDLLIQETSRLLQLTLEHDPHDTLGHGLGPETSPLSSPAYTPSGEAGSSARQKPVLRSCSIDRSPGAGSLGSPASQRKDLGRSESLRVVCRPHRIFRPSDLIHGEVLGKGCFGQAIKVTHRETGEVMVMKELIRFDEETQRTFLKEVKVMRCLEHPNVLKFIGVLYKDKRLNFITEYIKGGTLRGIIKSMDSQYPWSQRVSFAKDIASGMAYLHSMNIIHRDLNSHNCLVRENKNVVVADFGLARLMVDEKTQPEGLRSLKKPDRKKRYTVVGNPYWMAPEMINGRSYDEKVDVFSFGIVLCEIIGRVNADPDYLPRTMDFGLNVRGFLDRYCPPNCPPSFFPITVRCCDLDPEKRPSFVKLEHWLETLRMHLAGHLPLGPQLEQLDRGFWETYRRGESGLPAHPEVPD

Compound	remaining binding at 1 µM [1] [%]	remaining binding at 1 µM [2] [%]	remaining binding at 1 µM [3] [%]	remaining binding at 1 µM [4] [%]	remaining binding at 1 µM [5] [%]	remaining binding at 1 µM [6] [%]
CCNc1nc(Nc2ccc(C(=O)N3CCC(N4CCOCC4)CC3)cc2OC)nc2[nH]cc(C(F)(F)F)c12 [Example 104, (4-((4-(ethylamino)-5-(trifluoromethyl)-7H-pyrrolo[2,3-d]pyrimidine-2-yl)amino)-3-methoxyphenyl)(4-morpholinopiperidine-1-yl)methanone]	100	96	100	86	0	100
CNc1nc(Nc2ccc(C(=O)N3CCOCC3)cc2OC)nc2[nH]cc(C#N)c12 [Example 1, 2-((2-methoxy-4-(morpholine-4-carbonyl)phenyl)amino)-4-(methylamino)-7H-pyrrolo[2,3-d]pyrimidine-5-carbonitrile]	70	94	100	99	13	87
CC1(Nc2nc(Nc3cnn([C@H]4CCN(C5COC5)C[C@@H]4F)c3Cl)nc3[nH]cc(C#N)c23)CC1 [Example 52, 2-((5-chloro-1-((3S,4S)-3-fluoro-1-(oxetane-3-yl)piperidine-4-yl)-1H-pyrazole-4-yl)amino)((1-methylcyclopropyl)amino)-7H-pyrrolo[2,3-d]pyrimidine-5-carbonitrile]	100	0	98	72	0.55	79
